In patent publication US20020137154A1, “Methods for improving cell growth and alcohol production during fermentation” (priority 2000, published 2002):
Read-outs that look alike come from different tables or passages of the source.

System: recombinant Escherichia coli KO11
Test: Batch fermentation of E. coli KO11 in 1% CSL medium and xylose with nutrient additives: ethanol production and cell growth
Type: cell-based
Settings: for Ethanol Production Maximum / Ethanol yield / Initial Growth (OD @ 24 h) OD / Maximum Cell Density OD / Maximum Cell Density Time / Volumetric Productivity Average / Volumetric Productivity Maximum: 1% CSL+xylose; for activity at 250 µg/mL / activity at 100 µg/mL / activity at 500 µg/mL: Escherichia coli
[1] = 1% CSL and xylose, 0.25 g/L at the start and after 12 hours
[2] = 3 × 0.25 g/L (start, 12 h, 24 h)

CC=O [Acetaldehyde, acetaldehyde]
ethanol production as compared to the control [1]: highest amount of ethanol production
initial growth and maximum cell density as compared to a control [1]: greatest initial growth and maximum cell density
Ethanol Production Maximum (0.1 g/L at start): 29.51 g/L
Ethanol yield (0.1 g/L at start): 0.304 grams of ethanol/grams of added sugar
Initial Growth (OD @ 24 h) OD (0.1 g/L at start): 2.25 OD
Maximum Cell Density OD (0.1 g/L at start): 2.56 OD
Maximum Cell Density Time (0.1 g/L at start): 48 h
Volumetric Productivity Average (0.1 g/L at start): 0.307 grams ethanol/(liter)(hour)
Volumetric Productivity Maximum (0.1 g/L at start): 0.389 grams ethanol/(liter)(hour)
Ethanol Production Maximum (0.25 g/L at start): 34.45 g/L
Ethanol yield (0.25 g/L at start): 0.355 grams of ethanol/grams of added sugar
Initial Growth (OD @ 24 h) OD (0.25 g/L at start): 2.48 OD
Maximum Cell Density OD (0.25 g/L at start): 3.12 OD
Maximum Cell Density Time (0.25 g/L at start): 96 h
Volumetric Productivity Average (0.25 g/L at start): 0.359 grams ethanol/(liter)(hour)
Volumetric Productivity Maximum (0.25 g/L at start): 0.425 grams ethanol/(liter)(hour)
Ethanol Production Maximum (0.5 g/L at start): 42.66 g/L
Ethanol yield (0.5 g/L at start): 0.439 grams of ethanol/grams of added sugar
Initial Growth (OD @ 24 h) OD (0.5 g/L at start): 2.55 OD
Maximum Cell Density OD (0.5 g/L at start): 4.31 OD
Maximum Cell Density Time (0.5 g/L at start): 96 h
Volumetric Productivity Average (0.5 g/L at start): 0.444 grams ethanol/(liter)(hour)
Volumetric Productivity Maximum (0.5 g/L at start): 0.623 grams ethanol/(liter)(hour)
Ethanol Production Maximum (2 × 0.25 g/L (start, 12 h)): 45.57 g/L
Ethanol yield (2 × 0.25 g/L (start, 12 h)): 0.469 grams of ethanol/grams of added sugar
Initial Growth (OD @ 24 h) OD (2 × 0.25 g/L (start, 12 h)): 3.36 OD
Maximum Cell Density OD (2 × 0.25 g/L (start, 12 h)): 4.67 OD
Maximum Cell Density Time (2 × 0.25 g/L (start, 12 h)): 96 h
Volumetric Productivity Average (2 × 0.25 g/L (start, 12 h)): 0.475 grams ethanol/(liter)(hour)
Volumetric Productivity Maximum (2 × 0.25 g/L (start, 12 h)): 0.740 grams ethanol/(liter)(hour)
Ethanol Production Maximum [2]: 38.21 g/L
Ethanol yield [2]: 0.393 grams of ethanol/grams of added sugar
Initial Growth (OD @ 24 h) OD [2]: 3.04 OD
Maximum Cell Density OD [2]: 4.02 OD
Maximum Cell Density Time [2]: 48 h
Volumetric Productivity Average [2]: 0.398 grams ethanol/(liter)(hour)
Volumetric Productivity Maximum [2]: 0.540 grams ethanol/(liter)(hour)
activity at 250 µg/mL (12 h, read-out: Ethanol Production Maximum % Control, 1% CSL+xylose, 2 × 0.25 g/L (start, 12 h)): 152%
activity at 250 µg/mL (12 h, read-out: Maximum Cell Density % Control, 1% CSL+xylose, 2 × 0.25 g/L (start, 12 h)): 186%
activity at 250 µg/mL (12 h, read-out: Volumetric Productivity Average % Control, 1% CSL+xylose, 2 × 0.25 g/L (start, 12 h)): 152%
activity at 250 µg/mL (12 h, read-out: Volumetric Productivity Maximum % Control, 1% CSL+xylose, 2 × 0.25 g/L (start, 12 h)): 201%
activity at 100 µg/mL (24 h, read-out: Initial Growth (OD @ 24 h) % Control, 1% CSL+xylose, 0.1 g/L at start): 110%
activity at 250 µg/mL (24 h, read-out: Initial Growth (OD @ 24 h) % Control, 1% CSL+xylose, 0.25 g/L at start): 121%
activity at 500 µg/mL (24 h, read-out: Initial Growth (OD @ 24 h) % Control, 1% CSL+xylose, 0.5 g/L at start): 125%
activity at 250 µg/mL (24 h, read-out: Initial Growth (OD @ 24 h) % Control, 1% CSL+xylose, 2 × 0.25 g/L (start, 12 h)): 165%
activity at 250 µg/mL (24 h, read-out: Initial Growth (OD @ 24 h) % Control, 1% CSL+xylose, 3 × 0.25 g/L (start, 12 h, 24 h)): 149%
activity at 100 µg/mL (read-out: Ethanol Production Maximum % Control, 1% CSL+xylose, 0.1 g/L at start): 98.1%
activity at 250 µg/mL (read-out: Ethanol Production Maximum % Control, 1% CSL+xylose, 0.25 g/L at start): 115%
activity at 500 µg/mL (read-out: Ethanol Production Maximum % Control, 1% CSL+xylose, 0.5 g/L at start): 142%
activity at 250 µg/mL (read-out: Ethanol Production Maximum % Control, 1% CSL+xylose, 3 × 0.25 g/L (start, 12 h, 24 h)): 127%
activity at 100 µg/mL (read-out: Maximum Cell Density % Control, 1% CSL+xylose, 0.1 g/L at start): 102%
activity at 250 µg/mL (read-out: Maximum Cell Density % Control, 1% CSL+xylose, 0.25 g/L at start): 124%
activity at 500 µg/mL (read-out: Maximum Cell Density % Control, 1% CSL+xylose, 0.5 g/L at start): 171%
activity at 250 µg/mL (read-out: Maximum Cell Density % Control, 1% CSL+xylose, 3 × 0.25 g/L (start, 12 h, 24 h)): 160%
activity at 100 µg/mL (read-out: Volumetric Productivity Average % Control, 1% CSL+xylose, 0.1 g/L at start): 98.1%
activity at 250 µg/mL (read-out: Volumetric Productivity Average % Control, 1% CSL+xylose, 0.25 g/L at start): 115%
activity at 500 µg/mL (read-out: Volumetric Productivity Average % Control, 1% CSL+xylose, 0.5 g/L at start): 142%
activity at 250 µg/mL (read-out: Volumetric Productivity Average % Control, 1% CSL+xylose, 3 × 0.25 g/L (start, 12 h, 24 h)): 127%
activity at 100 µg/mL (read-out: Volumetric Productivity Maximum % Control, 1% CSL+xylose, 0.1 g/L at start): 106%
activity at 250 µg/mL (read-out: Volumetric Productivity Maximum % Control, 1% CSL+xylose, 0.25 g/L at start): 115%
activity at 500 µg/mL (read-out: Volumetric Productivity Maximum % Control, 1% CSL+xylose, 0.5 g/L at start): 169%
activity at 250 µg/mL (read-out: Volumetric Productivity Maximum % Control, 1% CSL+xylose, 3 × 0.25 g/L (start, 12 h, 24 h)): 147%
